From US9504685B2, “Method for treating a pulmonary hypertension condition” (Gilead Sciences, Inc., priority 2006, dated 2016)

Test system: subjects with PAH
Assay: Example 2 (ARIES-1) placebo-controlled Phase III trial, efficacy
Type: in vivo, human
Conditions: for change from baseline in mean 6MWD at Week 12: subjects who received supplemental oxygen
Method: The primary objective of this study was to determine the effect of ambrisentan on exercise capacity in subjects with pulmonary arterial hypertension (PAH). The secondary objectives of this study were to evaluate effects of ambrisentan on other clinical measures of PAH, as well as safety and tolerability of the study drug.
Study drug was provided in round, biconvex, oral tablets that were identical in appearance. Three strengths of active study drug containing 2.5 mg, 5 mg or 10 mg of ambrisentan were used in this study. All study drug was packaged in blister cards. Subjects were instructed to take study drug once daily (q.d.) by mouth (p.o.) in the morning, with or without food.
The maximum study duration was up to 14 weeks from the time of initial screening procedures to the final study visit (Week 12). Screening procedures were performed a maximum of 2 weeks prior to the first dose of study drug. The maximum duration of study drug treatment was 12 weeks.
Men and women, 18 years of age or older, with idiopathic PAH, PAH associated with CTD, e.g., mixed CTD, CREST syndrome, systemic sclerosis (scleroderma), overlap syndrome or systemic lupus erythematosus, or PAH associated with anorexigen use or HIV infection were enrolled in this study. Subjects were to have a documented mean PAP≧25 mmHg, PVR>3 mmHgL/min, and PCWP or LVEDP<15 mmHg. Subjects must have been able to walk a distance of at least 150 m but no more than 450 m during 2 consecutive 6MWTs to be eligible for inclusion in the study.
After a 2 week screening period, eligible subjects were stratified based on the underlying etiology of PAH (idiopathic or non-idiopathic) and were randomized to 1 of 3 treatment groups (placebo, 5 mg or 10 mg ambrisentan) in a ratio of 1:1:1. One blinded dose reduction was permitted during the 12-week treatment period in the event of study drug intolerance (e.g., 10 mg to 5 mg, 5 mg to 2.5 mg, placebo to placebo). Subjects received a daily dose of 2.5 mg ambrisentan only if they reduced from the 5 mg dose group. Subjects were assessed for efficacy and safety at monthly intervals.
Therefore, after a minimum treatment period of 4 weeks, subjects who met 2 or more of the following predefined early escape criteria may have been removed from the study: • (a) a decrease from baseline of at least 20% in 6MWD; • (b) an increase of 1 or more WHO functional class; • (c) worsening right ventricular failure (e.g., as indicated by increased jugular venous pressure, new or worsening hepatomegaly, ascites or peripheral edema); • (d) rapidly progressing cardiogenic, hepatic or renal failure; and/or • (e) refractory systolic hypotension (systolic blood pressure <85 mmHg).
The primary efficacy endpoint was change from baseline in 6MWD evaluated after 12 weeks of treatment compared to placebo.
The secondary efficacy endpoints included: • (a) time to clinical worsening of PAH, as defined by the time from randomization to the first occurrence of death, lung transplantation, hospitalization for PAH, atrial septostomy, study discontinuation due to addition of other PAH therapeutic agents, or study discontinuation due to 2 or more early escape criteria; • (b) change from baseline measured after 12 weeks of treatment compared to placebo in: • (i) WHO functional class; • (ii) SF-36® health survey physical functioning scale; • (iii) BDI immediately following exercise; and/or • (iv) an assessment of the safety and tolerability of the study drug; and • (c) change from baseline measured after 12 weeks of treatment compared to placebo in plasma levels of ET-1, BNP and cTnT. Safety Assessments
For the ITT population, subjects were considered as belonging to their randomized treatment group, regardless of the actual treatment received.
The primary efficacy endpoint was the change from baseline in 6MWD evaluated after 12 weeks of treatment compared to placebo, where the last observation was carried forward. […]

[1] = 10 mg once daily, baseline to Week 12
[2] = combined 5 mg and 10 mg groups, 12 weeks
[3] = combined 5 mg and 10 mg groups, Week 12
[4] = combined 5 mg and 10 mg groups, baseline to Week 12

In the case of `COC(c1ccccc1)(c1ccccc1)[C@H](Oc1nc(C)cc(C)n1)C(=O)O` [ambrisentan], the “Change in SF-36 Social functioning, mean (SD)” value [1] is reported as “+4.11 ± 11.77”, the “Change in SF-36 Vitality, mean (SD)” value [1] is reported as “+5.03 ± 10.07” and the “Change in WHO functional class: +1 class” value [1] is reported as 3 (4.5) subjects (% of ITT population). For the same compound, the “Change in WHO functional class: +2 classes” value [1] was 0 (0.0) subjects (% of ITT population), the “Change in WHO functional class: no change” value [1] was 44 (65.7) subjects (% of ITT population) and the “Change in WHO functional class: −1 class” value [1] was 15 (22.4) subjects (% of ITT population). For the same compound, the “Change in WHO functional class: −2 classes” value [1] was 5 (7.5) subjects (% of ITT population), the “placebo-adjusted 6MWD increase from baseline at Week 12” value (shortened to “placebo-adjusted 6MWD increase”) (WHO class I/II subgroup, 5 mg once daily) was “+25.6 m” and the “placebo-adjusted 6MWD increase” value (WHO class I/II subgroup, 10 mg once daily) was “+42.0 m”. For the same compound, the “placebo-adjusted 6MWD increase” value (WHO class III/IV subgroup, 5 mg once daily) was “+34.1 m”, the “placebo-adjusted 6MWD increase” value (WHO class III/IV subgroup, 10 mg once daily) was “+56.9 m” and the “placebo-adjusted BDI at Week 12” value (combined 5 mg and 10 mg groups) was −0.6. For the same compound, the “Clinical worsening event: Atrial septostomy” value [2] was 0 (0.0) subjects (% of ITT population), the “Clinical worsening event: Death” value [2] was 2 (1.5) subjects (% of ITT population) and the “Clinical worsening event: Escape criteria” value [2] was 2 (1.5) subjects (% of ITT population). The “Clinical worsening event: Hospitalization for PAH” value [2] was 4 (3.0) subjects (% of ITT population), the “Clinical worsening event: Lung transplantation” value [2] was 0 (0.0) subjects (% of ITT population) and the “Clinical worsening event: Study discontinuation due to addition of PAH treatment” value [2] was 1 (0.7) subjects (% of ITT population). For the same compound, the “Clinical worsening: Total subjects with ≧1 event” value [2] was 6 (4.5) subjects (% of ITT population), the “Change in 6MWD from baseline to Week 12, mean” value (combined 5 mg and 10 mg groups, ITT population) was “+33.2 meters” and the “subjects who deteriorated by at least 1 WHO class” value [3] was 3.0%. The “subjects who had an improvement of 2 WHO classes” value [3] was 4.5%, the “Change in SF-36 Bodily pain, mean (SD)” value [4] was “+0.42 ± 12.81” and the “Change in SF-36 General health, mean (SD)” value [4] was “+1.66 ± 8.74”. The “Change in SF-36 Mental component summary, mean (SD)” value [4] was “+1.30 ± 11.89”, the “Change in SF-36 Mental health, mean (SD)” value [4] was “+1.18 ± 11.23” and the “Change in SF-36 Physical component summary, mean (SD)” value [4] was “+3.34 ± 8.40”. The “Change in SF-36 Role-emotional, mean (SD)” value [4] was “+2.19 ± 15.71”, the “Change in SF-36 Role-physical, mean (SD)” value [4] was “+5.45 ± 10.47” and the “Change in SF-36 Social functioning, mean (SD)” value [4] was “+2.61 ± 12.78”. The “Change in SF-36 Vitality, mean (SD)” value [4] was “+3.71 ± 10.11”, the “Change in WHO functional class: +1 class” value [4] was 4 (3.0) subjects (% of ITT population) and the “Change in WHO functional class: +2 classes” value [4] was 0 (0.0) subjects (% of ITT population). For the same compound, the “Change in WHO functional class: no change” value [4] was 91 (67.9) subjects (% of ITT population), the “Change in WHO functional class: −1 class” value [4] was 33 (24.6) subjects (% of ITT population) and the “Change in WHO functional class: −2 classes” value [4] was 6 (4.5) subjects (% of ITT population). For the same compound, the “placebo-adjusted 6MWD increase” value (female subjects, 5 mg once daily) was “+30.9 m”, the “placebo-adjusted 6MWD increase” value (female subjects, 10 mg once daily) was “+57.7 m” and the “placebo-adjusted 6MWD increase” value (idiopathic PAH subgroup, 5 mg once daily) was “+42.9 m”. The “placebo-adjusted 6MWD increase” value (idiopathic PAH subgroup, 10 mg once daily) was “+56.9 m”, the “placebo-adjusted 6MWD increase” value (male subjects, 5 mg once daily) was “+19.9 m” and the “placebo-adjusted 6MWD increase” value (male subjects, 10 mg once daily) was “+13.1 m”. For the same compound, the “placebo-adjusted 6MWD increase” value (non-idiopathic PAH subgroup, 5 mg once daily) was “+10.2 m”, the “placebo-adjusted 6MWD increase” value (non-idiopathic PAH subgroup, 10 mg once daily) was “+43.0 m” and the “placebo-adjusted 6MWD increase” value (subjects not receiving calcium channel blockers, 5 mg once daily) was “+38.7 m”. For the same compound, the “placebo-adjusted 6MWD increase” value (subjects not receiving calcium channel blockers, 10 mg once daily) was “+67.9 m”, the “reduction in the probability of clinical worsening (hazard ratio) compared to placebo” value (subjects receiving ambrisentan (combined group), 12 weeks) was 50% and the “subjects hospitalized for PAH” value (subjects receiving ambrisentan (combined), 12 weeks) was 3.0%. For the same compound, the “placebo-adjusted 6MWD increase” value (subjects receiving calcium channel blockers, 5 mg once daily) was “+15.1 m”, the “placebo-adjusted 6MWD increase” value (subjects receiving calcium channel blockers, 10 mg once daily) was “+19.6 m” and the “change from baseline in mean 6MWD at Week 12” value (5 mg once daily) was “+21.1 m”. For the same compound, the “change from baseline in mean 6MWD at Week 12” value (10 mg once daily) was “+48.0 m”.
